The values below are quoted from earlier work in patent US10285382B2 (priority 2017, dated 2019).

Like-named read-outs stand apart in the source and are kept apart here.

What all share (conditions): cited from earlier work
In data set [1] the test system is broiler eggs.
Data set [2] deals with Salmonella.
The subject of data set [3] is shell surface bacteria.
The mark [4] stands for this setting: dipping eggs in 6% H2O2 solution twice, Padron (1995).

On to `OO` [H2O2, hydrogen peroxide], for which, in data set [1] (broiler eggs, […] fogged, Bailey et al. (1996)), the effect on hatchability entry is given as “did not significantly reduce, or improve”. Moreover, in data set [1] (in vivo), the effect on hatchability result is on record as “no adverse effect”. Also, the “treated eggs remaining contaminated” value in data set [2] ([…] solution applied with a vacuum and a surfactant, Cox et al.) is recorded as 30%. Also, in data set [2] (setting [4]), the “reduction of the number of Salmonella in eggshell membranes” value is 95% and the “reduction of the numbers of positive eggs” value is 55%. Besides, in data set [3] (3% solution combined with ultraviolet light, Wells et al. (2010)), the “log reduction in bacterial counts (cfu/egg)” value is listed as at most 3 log. For the same compound, the “H2O2 concentration required to disinfect shell surfaces” value in data set [3] (Sheldon and Brake (1991)) is on record as 5 % (vol/vol).
